# Laboratory results from ChEMBL document CHEMBL2202954, “The effect of PLC-γ2 inhibitors on the growth of human tumour cells” (2012).
# Key:
# Format in all cases: functional
# DU-145 = experiment: Cytotoxicity against human DU145 cells assessed as cellular growth at 10 uM by SRB assay
# CAKI-1 = experiment: Cytotoxicity against human Caki1 cells assessed as cellular growth at 10 uM by SRB assay
# HOP-62 = experiment: Cytotoxicity against human HOP62 cells assessed as cellular growth at 10 uM by SRB assay
# A549 = experiment: Cytotoxicity against human A549 cells assessed as cellular growth at 10 uM by SRB assay
# MOLT-4 = experiment: Cytotoxicity against human MOLT4 cells assessed as cellular growth at 10 uM by SRB assay
# IGROV-1 = experiment: Cytotoxicity against human IGROV1 cells assessed as cellular growth at 10 uM by SRB assay
# KM12 = experiment: Cytotoxicity against human KM12 cells assessed as cellular growth at 10 uM by SRB assay
# EKVX = experiment: Cytotoxicity against human EKVX cells assessed as cellular growth at 10 uM by SRB assay
# MDA-MB-231 = experiment: Cytotoxicity against human MDA-MB-231 cells assessed as cellular growth at 10 uM by SRB assay
# SF-268 = experiment: Cytotoxicity against human SF268 cells assessed as cellular growth at 10 uM by SRB assay
# HCT-116 = experiment: Cytotoxicity against human HCT116 cells assessed as cellular growth at 10 uM by SRB assay
# NCI-H460 = experiment: Cytotoxicity against human NCI-H460 cells assessed as cellular growth at 10 uM by SRB assay
# HT-29 = experiment: Cytotoxicity against human HT-29 cells assessed as cellular growth at 10 uM by SRB assay
# NCI-H23 = experiment: Cytotoxicity against human NCI-H23 cells assessed as cellular growth at 10 uM by SRB assay
# COLO 205 = experiment: Cytotoxicity against human COLO205 cells assessed as cellular growth at 10 uM by SRB assay
# SW-620 = experiment: Cytotoxicity against human SW620 cells assessed as cellular growth at 10 uM by SRB assay
# NCI-H522 = experiment: Cytotoxicity against human NCI-H522 cells assessed as cellular growth at 10 uM by SRB assay
# Malme-3M = experiment: Cytotoxicity against human MALME-3M cells assessed as cellular growth at 10 uM by SRB assay
# OVCAR-3 = experiment: Cytotoxicity against human OVCAR3 cells assessed as cellular growth at 10 uM by SRB assay
# U-251 = experiment: Cytotoxicity against human U251 cells assessed as cellular growth at 10 uM by SRB assay
# HCC 2998 = experiment: Cytotoxicity against human HCC2998 cells assessed as cellular growth at 10 uM by SRB assay
# SNB-75 = experiment: Cytotoxicity against human SNB75 cells assessed as cellular growth at 10 uM by SRB assay
# HCT-15 = experiment: Cytotoxicity against human HCT15 cells assessed as cellular growth at 10 uM by SRB assay
# SK-MEL-28 = experiment: Cytotoxicity against human SK-MEL-28 cells assessed as cellular growth at 10 uM by SRB assay
# MDA-MB-435 = experiment: Cytotoxicity against human MDA-MB-435 cells assessed as cellular growth at 10 uM by SRB assay
# OVCAR-5 = experiment: Cytotoxicity against human OVCAR5 cells assessed as cellular growth at 10 uM by SRB assay
# RPMI-8226 = experiment: Cytotoxicity against human RPMI8226 cells assessed as cellular growth at 10 uM by SRB assay
# SF-539 = experiment: Cytotoxicity against human SF539 cells assessed as cellular growth at 10 uM by SRB assay
# HOP-92 = experiment: Cytotoxicity against human HOP92 cells assessed as cellular growth at 10 uM by SRB assay
# ACHN = experiment: Cytotoxicity against human ACHN cells assessed as cellular growth at 10 uM by SRB assay
# MDA-MB-468 = experiment: Cytotoxicity against human MDA-MB-468 cells assessed as cellular growth at 10 uM by SRB assay
# [1] = Cytotoxicity against human NCI-ADR-RES cells assessed as cellular growth at 10 uM by SRB assay
# 786-0 = experiment: Cytotoxicity against human 786-0 cells assessed as cellular growth at 10 uM by SRB assay
# Hs-578T = experiment: Cytotoxicity against human Hs578T cells assessed as cellular growth at 10 uM by SRB assay
# OVCAR-4 = experiment: Cytotoxicity against human OVCAR4 cells assessed as cellular growth at 10 uM by SRB assay
# UO-31 = experiment: Cytotoxicity against human UO31 cells assessed as cellular growth at 10 uM by SRB assay
# HL-60(TB) = experiment: Cytotoxicity against human HL-60(TB) cells assessed as cellular growth at 10 uM by SRB assay
# SNB-19 = experiment: Cytotoxicity against human SNB19 cells assessed as cellular growth at 10 uM by SRB assay
# SK-OV-3 = experiment: Cytotoxicity against human SKOV3 cells assessed as cellular growth at 10 uM by SRB assay
# UACC-62 = experiment: Cytotoxicity against human UACC62 cells assessed as cellular growth at 10 uM by SRB assay
# SN12C = experiment: Cytotoxicity against human SN12C cells assessed as cellular growth at 10 uM by SRB assay
# SF-295 = experiment: Cytotoxicity against human SF295 cells assessed as cellular growth at 10 uM by SRB assay
# BT-549 = experiment: Cytotoxicity against human BT549 cells assessed as cellular growth at 10 uM by SRB assay
# PC-3 = experiment: Cytotoxicity against human PC3 cells assessed as cellular growth at 10 uM by SRB assay
# TK-10 = experiment: Cytotoxicity against human TK10 cells assessed as cellular growth at 10 uM by SRB assay
# LOX IMVI = experiment: Cytotoxicity against human LOXIMVI cells assessed as cellular growth at 10 uM by SRB assay
# NCI-H322M = experiment: Cytotoxicity against human NCI-H322M cells assessed as cellular growth at 10 uM by SRB assay
# SK-MEL-5 = experiment: Cytotoxicity against human SK-MEL-5 cells assessed as cellular growth at 10 uM by SRB assay
# OVCAR-8 = experiment: Cytotoxicity against human OVCAR8 cells assessed as cellular growth at 10 uM by SRB assay
# NCI-H226 = experiment: Cytotoxicity against human NCI-H226 cells assessed as cellular growth at 10 uM by SRB assay
# A498 = experiment: Cytotoxicity against human A498 cells assessed as cellular growth at 10 uM by SRB assay
# UACC-257 = experiment: Cytotoxicity against human UACC257 cells assessed as cellular growth at 10 uM by SRB assay
# RXF 393 = experiment: Cytotoxicity against human RXF393 cells assessed as cellular growth at 10 uM by SRB assay
# K562 = experiment: Cytotoxicity against human K562 cells assessed as cellular growth at 10 uM by SRB assay
# CCRF-CEM = experiment: Cytotoxicity against human CCRF-CEM cells assessed as cellular growth at 10 uM by SRB assay
# MCF7 = experiment: Cytotoxicity against human MCF7 cells assessed as cellular growth at 10 uM by SRB assay
# M14 = experiment: Cytotoxicity against human M14 cells assessed as cellular growth at 10 uM by SRB assay
# T47D = experiment: Cytotoxicity against human T47D cells assessed as cellular growth at 10 uM by SRB assay
# SK-MEL-2 = experiment: Cytotoxicity against human SK-MEL-2 cells assessed as cellular growth at 10 uM by SRB assay
compound,measurement,setting,value
O=C(NCc1cccnc1)c1sc2cc([N+](=O)[O-])ccc2c1Cl,Activity,DU-145,105.44%
same,Activity,CAKI-1,85.26%
same,Activity,HOP-62,97.3%
same,Activity,A549,91.87%
same,Activity,MOLT-4,93.36%
same,Activity,IGROV-1,106.67%
same,Activity,KM12,96.39%
same,Activity,EKVX,90.5%
same,Activity,MDA-MB-231,117.28%
same,Activity,SF-268,99.64%
same,Activity,HCT-116,99.66%
same,Activity,NCI-H460,106.27%
same,Activity,HT-29,106.56%
same,Activity,NCI-H23,97.31%
same,Activity,COLO 205,118.05%
same,Activity,SW-620,96.99%
same,Activity,NCI-H522,97.09%
same,Activity,Malme-3M,105.28%
same,Activity,OVCAR-3,100.57%
same,Activity,U-251,90.3%
same,Activity,HCC 2998,104.9%
same,Activity,SNB-75,91.37%
same,Activity,HCT-15,97.65%
same,Activity,SK-MEL-28,110.01%
same,Activity,MDA-MB-435,95.22%
same,Activity,OVCAR-5,105.26%
same,Activity,RPMI-8226,94.49%
same,Activity,SF-539,103.86%
same,Activity,HOP-92,98.76%
same,Activity,ACHN,106.03%
same,Activity,MDA-MB-468,106.53%
same,Activity,[1],95.58%
same,Activity,786-0,96.95%
same,Activity,Hs-578T,92.59%
same,Activity,OVCAR-4,102.6%
same,Activity,UO-31,76.73%
same,Activity,HL-60(TB),110.91%
same,Activity,SNB-19,96.96%
same,Activity,SK-OV-3,91.06%
same,Activity,UACC-62,89.48%
same,Activity,SN12C,92.4%
same,Activity,SF-295,92.94%
same,Activity,BT-549,97.89%
same,Activity,PC-3,101.92%
same,Activity,TK-10,122.07%
same,Activity,LOX IMVI,102.15%
same,Activity,NCI-H322M,101.48%
same,Activity,SK-MEL-5,96.88%
same,Activity,OVCAR-8,96.34%
same,Activity,NCI-H226,97.25%
same,Activity,A498,66.73%
same,Activity,UACC-257,92.34%
same,Activity,RXF 393,111.54%
same,Activity,K562,93.09%
same,Activity,CCRF-CEM,100.08%
same,Activity,MCF7,92.75%
same,Activity,M14,108.24%
same,Activity,T47D,84.08%
Clc1ccccc1Nc1nnc(-c2ccncc2)s1,Activity,CAKI-1,90.5%
same,Activity,HOP-62,117.96%
same,Activity,A549,94.98%
same,Activity,MOLT-4,93.42%
same,Activity,IGROV-1,100.52%
same,Activity,KM12,107.17%
same,Activity,EKVX,91.68%
same,Activity,MDA-MB-231,107.89%
same,Activity,SF-268,104.7%
same,Activity,HCT-116,101.59%
same,Activity,NCI-H460,99.69%
same,Activity,HT-29,105.3%
same,Activity,NCI-H23,102%
same,Activity,COLO 205,114.33%
same,Activity,SW-620,91.55%
same,Activity,NCI-H522,98.62%
same,Activity,Malme-3M,108.85%
same,Activity,OVCAR-3,109.8%
same,Activity,U-251,102.87%
same,Activity,HCC 2998,106.44%
same,Activity,SNB-75,105.58%
same,Activity,HCT-15,112.25%
same,Activity,SK-MEL-28,100.34%
same,Activity,MDA-MB-435,93.62%
same,Activity,OVCAR-5,106.94%
same,Activity,RPMI-8226,89.16%
same,Activity,SF-539,107.62%
same,Activity,HOP-92,93.87%
same,Activity,ACHN,104.09%
same,Activity,MDA-MB-468,110.42%
same,Activity,[1],101.59%
same,Activity,786-0,80.21%
same,Activity,Hs-578T,94.94%
same,Activity,OVCAR-4,94.51%
same,Activity,UO-31,90.67%
same,Activity,HL-60(TB),79.12%
same,Activity,SNB-19,99.81%
same,Activity,SK-OV-3,104.92%
same,Activity,UACC-62,95.3%
same,Activity,SN12C,86%
same,Activity,SF-295,88.68%
same,Activity,BT-549,90.37%
same,Activity,PC-3,97.24%
same,Activity,TK-10,110.92%
same,Activity,LOX IMVI,110.09%
same,Activity,NCI-H322M,93.72%
same,Activity,SK-MEL-5,97.75%
same,Activity,OVCAR-8,100.07%
same,Activity,NCI-H226,100.58%
same,Activity,A498,92.09%
same,Activity,UACC-257,107.89%
same,Activity,RXF 393,107.3%
same,Activity,K562,101.4%
same,Activity,CCRF-CEM,95.96%
same,Activity,SK-MEL-2,106.68%
same,Activity,MCF7,96.02%
same,Activity,M14,103.83%
same,Activity,T47D,89.46%
